Measured values taken from patent US20180273579A1, “COMPOUNDS WITH HIV MATURATION INHIBITORY ACTIVITY” (priority 2015, published 2018).
Counter-ions that a name gives are not always drawn.

Columns and labels:
HIV-1 (strain IIIB) = test: MT4 Cell Antiviral Assay (general statement, control); assay type: cell-based; details: Human immunodeficiency virus 1, IIIB, control and standard in every assay, propidium iodide readout, read-out: expected range of IC50 values
Description: Antiviral HIV activity and compound-induced cytotoxicity were measured in parallel by means of a propidium iodide based procedure in the human T-cell lymphotropic virus transformed cell line MT4. Aliquots of the test compounds were serially diluted in medium (RPMI 1640, 10% fetal calf serum (FCS), and gentamycin) in 96-well plates (Costar 3598) using a Cetus Pro/Pette. Exponentially growing MT4 cells were harvested and centrifuged at 1000 rpm for 10 min in a Jouan centrifuge (model CR 4 12). Cell pellets were resuspended in fresh medium (RPMI 1640, 20% FCS, 20% IL-2, and gentamycin) to a density of 5×10^5 cells/ml. […]
For propidium iodide readout, 27 μl of 5% Nonidet-40 was added to each well of the incubation plate. […] The plates were analyzed in an automated assay instrument (Screen Machine, Idexx Laboratories). […]
For MTS readout, 20 μl CellTiter 96 AQ One Solution reagent (Promega #G3582) was added to each well. At 75 minutes following the addition of MTS reagent, absobance was read at 492 nm using a Tecan Sunrise 96-well plate reader. […]
For each assay plate, the results (relative fluorescence units, rfU, or OD values) of wells containing uninfected cells or infected cells with no compound were averaged, respectively. […] Percent of cells remaining is determined by the following formula: […]

HIV = details: cited from earlier work
NL4-3 wt = test: MT4 Cell Antiviral Assay (NL4-3 wt); assay type: cell-based, HIV-1; details: Human immunodeficiency virus 1, NL43, HIV MT4 Antiviral Cell Assay
V370A = test: MT4 Cell Antiviral Assay (V370A); assay type: cell-based, HIV-1; details: Human immunodeficiency virus 1, MT4, read-out: EC50 V370A (nM)

SMILES	IC50 (HIV-1 (strain IIIB))	reduced HIV viral load, mean (HIV; patients with trough levels >=20 μg/mL and without key baseline Gag polymorphisms at Q369, V370 or T371)	viral load reduction (HIV; users with Gag polymorphisms at Q369, V370 or T371, versus patients without them)	EC50 (NL4-3 wt)	EC50 (V370A)
Cc1cn([C@H]2C[C@H](N=[N+]=[N-])[C@@H](CO)O2)c(=O)[nH]c1=O [3′-azido-3′-deoxythymidine]	40 to 120 nM				
C=C(C)[C@@H]1CC[C@]2(C(=O)O)CC[C@]3(C)[C@H](CC[C@@H]4[C@@]5(C)CC[C@H](OC(=O)CC(C)(C)C(=O)O)C(C)(C)[C@@H]5CC[C@]43C)[C@@H]12 [Bevirimat]		1.3 log10/mL	significantly lower load reductions		
CC(C)C1=C2[C@H]3CC[C@@H]4[C@@]5(C)CC=C(C6=CCC(C(=O)O)CC6)C(C)(C)[C@@H]5CC[C@@]4(C)[C@]3(C)CC[C@@]2(C(=O)NCCN2CCC(S(C)(=O)=O)CC2)CC1=O (stereo partly drawn) [Example 1, 4-((3aR,5aR,5bR,7aR,11aS,11bR,13aS)-1-Isopropyl-5a,5b,8,8,11a-pentamethyl-3a-((2-(4-(methylsulfonyl)piperidin-1-yl)ethyl)carbamoyl)-2-oxo-3,3a,4,5,5a,5b,6,7,7a,8,11,11a,11b,12,13,13a-hexadecahydro-2H-cyclopenta[a]chrysen-9-yl)cyclohex-3-enecarboxylic acid]				> 23900 nM	> 25000 nM
CC(C)C1=C2[C@H]3CC[C@@H]4[C@@]5(C)CC=C(C6=CCC(C(=O)O)CC6)C(C)(C)[C@@H]5CC[C@@]4(C)[C@]3(C)CC[C@@]2(C(=O)NCCN2CCS(=O)(=O)CC2)CC1=O (stereo partly drawn) [Example 2, 4-((3aR,5aR,5bR,7aR,11aS,11bR,13aS)-3a-((2-(1,1-Dioxidothiomorpholino)ethyl)carbamoyl)-1-isopropyl-5a,5b,8,8,11a-pentamethyl-2-oxo-3,3a,4,5,5a,5b,6,7,7a,8,11,11a,11b,12,13,13a-hexadecahydro-2H-cyclopenta[a]chrysen-9-yl)cyclohex-3-enecarboxylic acid]				3390 nM	> 25000 nM
CC(C)C1=C2[C@H]3CC[C@@H]4[C@@]5(C)CC=C(C6=CCC(C(=O)O)CC6)C(C)(C)[C@@H]5CC[C@@]4(C)[C@]3(C)CC[C@@]2(C(=O)N(CCN(C)C)[C@H](C)c2ccc(Cl)cc2)CC1=O (stereo partly drawn) [Example 5, 4-((3aR,5aR,5bR,7aR,11aS,11bR,13aS)-3a-(((R)-1-(4-Chlorophenyl)ethyl) (2-(dimethylamino)ethyl)carbamoyl)-1-isopropyl-5a,5b,8,8,11a-pentamethyl-2-oxo-3,3a,4,5,5a,5b,6,7,7a,8,11,11a,11b,12,13,13a-hexadecahydro-2H-cyclopenta[a]chrysen-9-yl)cyclohex-3-enecarboxylic acid]				7.6 nM	9.5 nM
CC(C)C1=C2[C@H]3CC[C@@H]4[C@@]5(C)CC=C(C6=CCC(C(=O)O)CC6)C(C)(C)[C@@H]5CC[C@@]4(C)[C@]3(C)CC[C@@]2(C(=O)N(CCN(C)C)Cc2ccc(Cl)cc2)CC1=O (stereo partly drawn) [Example 6, 4-((3aR,5aR,5bR,7aR,11aS,11bR,13aS)-3a-((4-Chlorobenzyl) (2-(dimethylamino)ethyl)carbamoyl)-1-isopropyl-5a,5b,8,8,11a-pentamethyl-2-oxo-3,3a,4,5,5a,5b,6,7,7a,8,11,11a,11b,12,13,13a-hexadecahydro-2H-cyclopenta[a]chrysen-9-yl)cyclohex-3-enecarboxylic acid]				11.2 nM	14.1 nM
CC(C)C1=C2[C@H]3CC[C@@H]4[C@@]5(C)CC=C(c6ccc(C(=O)O)cc6)C(C)(C)[C@@H]5CC[C@@]4(C)[C@]3(C)CC[C@@]2(C(=O)N(CCN(C)C)[C@H](C)c2ccc(Cl)cc2)CC1=O [Example 7, 4-((3aR,5aR,5bR,7aR,11aS,11bR,13aS)-3a-(((R)-1-(4-Chlorophenyl)ethyl) (2-(dimethylamino)ethyl)carbamoyl)-1-isopropyl-5a,5b,8,8,11a-pentamethyl-2-oxo-3,3a,4,5,5a,5b,6,7,7a,8,11,11a,11b,12,13,13a-hexadecahydro-2H-cyclopenta[a]chrysen-9-yl)benzoic acid hydrochloride]				8.5 nM	8.9 nM
CC(C)C1=C2[C@H]3CC[C@@H]4[C@@]5(C)CC=C(c6ccc(C(=O)O)cc6)C(C)(C)[C@@H]5CC[C@@]4(C)[C@]3(C)CC[C@@]2(C(=O)N(CCN(C)C)Cc2ccc(Cl)cc2)CC1=O [Example 8, 4-((3aR,5aR,5bR,7aR,11aS,11bR,13aS)-3a-((4-Chlorobenzyl) (2-(dimethylamino)ethyl)carbamoyl)-1-isopropyl-5a,5b,8,8,11a-pentamethyl-2-oxo-3,3a,4,5,5a,5b,6,7,7a,8,11,11a,11b,12,13,13a-hexadecahydro-2H-cyclopenta[a]chrysen-9-yl)benzoic acid hydrochloride]				28.8 nM	64.6 nM
